Measured values from PubChem BioAssay (NCI).
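Five concentrations, 48 hours, 96-well plates. GI50 = concentration required for 50% inhibition of growth. Definition used: TGI = concentration required for complete inhibition of growth.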

Columns and labels:
Assay in all cases: growth of human tumour cells (NCI), 48 h
[1] = system: 786-0 renal
[2] = system: A498 renal
[3] = system: A549 NSCLC
[4] = system: ACHN renal
[5] = system: BT-549 breast
[6] = system: CAKI-1 renal
[7] = system: CCRF-CEM leukemia
[8] = system: COLO 205 colon
[9] = system: DU-145 prostate
[10] = system: EKVX NSCLC
[11] = system: HCC-2998 colon
[12] = system: HCT-116 colon
[13] = system: HCT-15 colon
[14] = system: HL-60(TB) leukemia
[15] = system: HOP-62 NSCLC
[16] = system: HOP-92 NSCLC
[17] = system: HS 578T breast
[18] = system: HT29 colon
[19] = system: IGROV1 ovarian
[20] = system: K-562 leukemia
[21] = system: KM12 colon
[22] = system: LOX IMVI melanoma
[23] = system: M14 melanoma
[24] = system: MALME-3M melanoma
[25] = system: MCF7 breast
[26] = system: MDA-MB-231 breast
[27] = system: MDA-MB-435
[28] = system: MOLT-4 leukemia
[29] = system: NCI-H226 lung
[30] = system: NCI-H23 lung
[31] = system: NCI-H460 lung
[32] = system: NCI-H522 lung
[33] = system: NCI/ADR-RES ovarian
[34] = system: OVCAR-3 ovarian
[35] = system: OVCAR-4 ovarian
[36] = system: OVCAR-5 ovarian
[37] = system: OVCAR-8 ovarian
[38] = system: PC-3 prostate
[39] = system: RPMI-8226 leukemia
[40] = system: RXF 393 renal
[41] = system: SF-268 CNS
[42] = system: SF-295 CNS
[43] = system: SF-539 CNS
[44] = system: SK-MEL-2 melanoma
[45] = system: SK-MEL-28 melanoma
[46] = system: SK-MEL-5 melanoma
[47] = system: SK-OV-3 ovarian
[48] = system: SN12C renal
[49] = system: SNB-19 CNS
[50] = system: SNB-75 CNS
[51] = system: SW-620 colon
[52] = system: T-47D breast
[53] = system: TK-10 renal
[54] = system: U251 CNS
[55] = system: UACC-257 melanoma
[56] = system: UACC-62 melanoma
[57] = system: UO-31 renal
[58] = system: SR leukemia

O=C(/C=C/C12c3ccccc3C(c3ccccc31)C1C(=O)NC(=O)C12)c1ccc(F)cc1 (stereo unspecified)
GI50 [1]: 1.79 µM | TGI [1]: 3.35 µM | GI50 [2]: 1.68 µM | TGI [2]: 3.11 µM | GI50 [3]: 2.39 µM | TGI [3]: 7.01 µM | GI50 [4]: 2.43 µM | TGI [4]: 6.18 µM | GI50 [5]: 1.69 µM | TGI [5]: 3.42 µM | GI50 [6]: 1.87 µM | TGI [6]: 4.37 µM | GI50 [7]: 2.45 µM | TGI [7]: 8.42 µM | GI50 [8]: 2.18 µM | TGI [8]: 4.27 µM | GI50 [9]: 1.63 µM | TGI [9]: 3 µM | GI50 [10]: 1.7 µM | TGI [10]: 4.45 µM | GI50 [11]: 1.62 µM | TGI [11]: 3.1 µM | GI50 [12]: 1.58 µM | TGI [12]: 3.41 µM | GI50 [13]: 1.66 µM | TGI [13]: 4.2 µM | GI50 [14]: 0.0217 µM | TGI [14]: 2.1 µM | GI50 [15]: 2.63 µM | TGI [15]: 7.4 µM | GI50 [16]: 1.59 µM | TGI [16]: 3.55 µM | GI50 [17]: 2.28 µM | TGI [17]: 7.84 µM | GI50 [18]: 2.34 µM | TGI [18]: 5.21 µM | GI50 [19]: 2.09 µM | TGI [19]: 5.9 µM | GI50 [20]: 1.42 µM | TGI [20]: 4.75 µM | GI50 [21]: 1.78 µM | TGI [21]: 3.43 µM | GI50 [22]: 1.67 µM | TGI [22]: 3.28 µM | GI50 [23]: 1.92 µM | TGI [23]: 3.96 µM | GI50 [24]: 1.97 µM | TGI [24]: 4.02 µM | GI50 [25]: 1.66 µM | TGI [25]: 4.48 µM | GI50 [26]: 3.05 µM | TGI [26]: 9.58 µM | GI50 [27]: 2.44 µM | TGI [27]: 6.41 µM | GI50 [28]: 0.457 µM | TGI [28]: 2.9 µM | GI50 [29]: 2.74 µM | TGI [29]: 9.51 µM | GI50 [30]: 1.83 µM | TGI [30]: 3.91 µM | GI50 [31]: 2.04 µM | TGI [31]: 5.05 µM | GI50 [32]: 2.14 µM | TGI [32]: 4.98 µM | GI50 [33]: 1.87 µM | TGI [33]: 4.03 µM | GI50 [34]: 1.7 µM | TGI [34]: 3.15 µM | GI50 [35]: 3.46 µM | TGI [35]: 13.2 µM | GI50 [36]: 1.92 µM | TGI [36]: 4.12 µM | GI50 [37]: 1.86 µM | TGI [37]: 4.84 µM | GI50 [38]: 1.66 µM | TGI [38]: 3.38 µM | GI50 [39]: 1.62 µM | TGI [39]: 4.39 µM | GI50 [40]: 1.77 µM | TGI [40]: 3.3 µM | GI50 [41]: 1.65 µM | TGI [41]: 3.2 µM | GI50 [42]: 2.01 µM | TGI [42]: 4.24 µM | GI50 [43]: 1.7 µM | TGI [43]: 3.11 µM | GI50 [44]: 2.06 µM | TGI [44]: 4.23 µM | GI50 [45]: 1.85 µM | TGI [45]: 3.39 µM | GI50 [46]: 1.72 µM | TGI [46]: 3.16 µM | GI50 [47]: 2.79 µM | TGI [47]: 8.03 µM | GI50 [48]: 1.7 µM | TGI [48]: 3.29 µM | GI50 [49]: 1.65 µM | TGI [49]: 3.18 µM | GI50 [50]: 1.39 µM | TGI [50]: 2.92 µM | GI50 [51]: 2.12 µM | TGI [51]: 4.59 µM | GI50 [52]: 2.52 µM | TGI [52]: 8.13 µM | GI50 [53]: 2.69 µM | TGI [53]: 6.43 µM | GI50 [54]: 1.63 µM | TGI [54]: 3.07 µM | GI50 [55]: 1.79 µM | TGI [55]: 3.37 µM | GI50 [56]: 1.68 µM | TGI [56]: 3.48 µM | GI50 [57]: 1.42 µM | TGI [57]: 2.85 µM

CCCCCCCCCNC(=O)/C=C/c1ccc(O)c(O)c1
GI50 [1]: 14.3 µM | TGI [1]: 29.7 µM | GI50 [2]: 16.2 µM | TGI [2]: 32.1 µM | GI50 [3]: 33.3 µM | TGI [3]: > 100 µM | GI50 [4]: 6.96 µM | TGI [4]: 21.6 µM | GI50 [5]: 32.4 µM | TGI [5]: > 100 µM | GI50 [6]: 3.91 µM | TGI [6]: 24.2 µM | GI50 [7]: 0.0426 µM | TGI [7]: 1.75 µM | GI50 [8]: 15.3 µM | TGI [8]: 54.3 µM | GI50 [9]: 17 µM | TGI [9]: 82.1 µM | GI50 [10]: 37.5 µM | TGI [10]: > 100 µM | GI50 [11]: 16 µM | TGI [11]: 31.4 µM | GI50 [12]: 4.94 µM | TGI [12]: 18.4 µM | GI50 [13]: 5.25 µM | TGI [13]: 19.9 µM | GI50 [15]: 12.2 µM | TGI [15]: 25.1 µM | GI50 [16]: 2.52 µM | TGI [16]: 17.3 µM | GI50 [17]: 0.451 µM | TGI [17]: 12.9 µM | GI50 [18]: 17.9 µM | TGI [18]: > 100 µM | GI50 [19]: 1.1 µM | TGI [19]: 5.49 µM | GI50 [21]: 9.02 µM | TGI [21]: 23.6 µM | GI50 [22]: 11 µM | TGI [22]: 29 µM | GI50 [23]: 12.2 µM | TGI [23]: 26.7 µM | GI50 [24]: 13.2 µM | TGI [24]: 31.4 µM | GI50 [25]: 28.3 µM | TGI [25]: > 100 µM | GI50 [26]: 13.2 µM | TGI [26]: 34.7 µM | GI50 [27]: 7.58 µM | TGI [27]: 23.5 µM | GI50 [28]: 0.474 µM | TGI [28]: 17.4 µM | GI50 [29]: 10.4 µM | TGI [29]: 25.5 µM | GI50 [30]: 17.7 µM | TGI [30]: 39.2 µM | GI50 [31]: 14.1 µM | TGI [31]: 57.1 µM | GI50 [32]: 0.833 µM | TGI [32]: 9.91 µM | GI50 [33]: 15.4 µM | TGI [33]: 46.8 µM | GI50 [34]: 5.95 µM | TGI [34]: 24.3 µM | GI50 [35]: 13.4 µM | TGI [35]: > 100 µM | GI50 [36]: 21.5 µM | TGI [36]: 45.8 µM | GI50 [37]: 24 µM | TGI [37]: 59.3 µM | GI50 [38]: 3.61 µM | TGI [38]: 36.2 µM | GI50 [39]: 0.61 µM | TGI [39]: 19.4 µM | GI50 [40]: 19.2 µM | TGI [40]: 50.9 µM | GI50 [41]: 10.9 µM | TGI [41]: 31.9 µM | GI50 [42]: 18.8 µM | TGI [42]: 40.3 µM | GI50 [43]: 15.1 µM | TGI [43]: 38.2 µM | GI50 [44]: 17.3 µM | TGI [44]: 37.2 µM | GI50 [45]: 19.7 µM | TGI [45]: > 100 µM | GI50 [46]: 1.34 µM | TGI [46]: 10.8 µM | GI50 [47]: 19.4 µM | TGI [47]: 49.5 µM | GI50 [48]: 10.8 µM | TGI [48]: 23.1 µM | GI50 [49]: 21.4 µM | TGI [49]: 50.3 µM | GI50 [50]: 15.4 µM | TGI [50]: 85.2 µM | GI50 [58]: 2.76 µM | TGI [58]: 21 µM | GI50 [51]: 3.06 µM | TGI [51]: 30.4 µM | GI50 [52]: 15 µM | TGI [52]: 59.9 µM | GI50 [53]: 11.1 µM | TGI [53]: 39.7 µM | GI50 [54]: 10.2 µM | TGI [54]: 23.3 µM | GI50 [55]: 29.5 µM | TGI [55]: 69.6 µM | GI50 [56]: 15.3 µM | TGI [56]: 29 µM | GI50 [57]: 1.42 µM | TGI [57]: 14.9 µM
